Laboratory results as given in patent US7763615B2, “Ecteinascidin analogs for use as antitumour agents” (priority 2001, dated 2010).
Like-named read-outs stand apart in the source and are kept apart here.

Legend:
[1] = test system: AML-12, normal mouse liver cells; conditions: 24 h
[2] = test system: L8, normal rat skeletal muscle cells; conditions: 24 h
[3] = test system: SK-OV3; assay: Inhibition of cells growth by colorimetric assay (SRB), SK-OV3; assay type: cell-based
Text: The finality of these assays is to interrupt the growth of a “in vitro” tumor cell culture by means of a continued exhibition of the cells to the sample to be testing.
A colorimetric type of assay, using sulphorhodamine B (SRB) reaction has been adapted for a quantitative measurement of cell growth and viability [following the technique described by Philip Skehan, et al. (1990), New colorimetric cytotoxicity assay for anticancer drug screening, J. Natl. Cancer Inst., 82:1107-1112]
This form of the assay employs 96 well cell culture microplates of 9 mm diameter (Faircloth, 1988; Mosmann, 1983). Most of the cell lines are obtained from American Type Culture Collection (ATCC) derived from different human cancer types.
Cells are maintained in RPMI 1640 10% FBS, supplemented with 0.1 g/l penicillin and 0.1 g/l streptomycin sulphate and then incubated at 37° C., 5% CO2 and 98% humidity. For the experiments, cells were harvested from subconfluent cultures using trypsin and resuspended in fresh medium before plating.
Cells are seeded in 96 well microtiter plates, at 5×10^3 cells per well in aliquots of 195 μl medium, and they are allowed to attach to the plate surface by growing in drug free medium for 18 hours. Afterward, samples are added in aliquots of 5 μl in a ranging from 10 to 10^−8 μg/ml, dissolved in DMSO/EtOH/PBS (0.5:0.5:99). After 48 hours exposure, the antitumor effect are measured by the SRB methodology: cells are fixed by adding 50 μl of cold 50% (wt/vol) trichloroacetic acid (TCA) and incubating for 60 minutes at 4° C. Plates are washed with deionized water and dried. One hundred μl of SRB solution (0.4% wt/vol in 1% acetic acid) is added to each microtiter well and incubated for 10 minutes at room temperature. Unbound SRB is removed by washing with 1% acetic acid. Plates are air dried and bound stain is solubilized with Tris buffer. Optical densities are read on a automated spectrophotometric plate reader at a single wavelength of 490 nm.
The values for mean+/− SD of data from triplicate wells are calculated. Some parameters for cellular responses can be calculated: GI=growth inhibition, TGI=total growth inhibition (cytostatic effect) and LC=cell killing (cytotoxic effect).

[4] = test system: NRK-52E, normal rat kidney cells; conditions: 24 h
[5] = test system: FDC-P1, normal mouse myelogeous stem cells; conditions: 24 h
[6] = test system: H9c2 (2-1), normal rat cardiac muscle cells; conditions: 24 h
Method: In order to assess the cytotoxicity of the drugs to normal cells, we used 96 well plates plated at a density of 5000 cells per well (except for the FDC-P1 which were plated at 12,000 cells per well) with normal cell lines (ATCC, Table 1) maintained as per the directions of the ATCC: AML-12, normal mouse liver cells; NRK-52E, normal rat kidney cells; L8, normal rat skeletal muscle cells; FDC-P1, normal mouse myelogeous stem cells; and H9c2 (2-1), normal rat cardiac muscle cells. The cells in each plate were permitted to settle overnight before adding the test drug.
To each well (100 μl medium) 10 μl of drug in media was added at varying concentrations (1×10-10-0.01 mg/ml final concentration) and further incubated overnight at 37° C. with 5% CO2. After 24 h the following assays were performed. All experiments were repeated at least 3 times and were assayed in duplicate.
MTS assay (CellTiter 96 aqueous) was performed according to the manufacturer's (Promega) directions (for all cell types). Cell viability (mitochondrial activity) is determined via enzymatic conversion of the formazan substrate.

[7] = test system: H-MEC-1; assay: Inhibition of cells growth by colorimetric assay (SRB), H-MEC-1; assay type: cell-based
In short: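 Absorbance at 490 nm of sulphorhodamine B bound by TCA-fixed cells gives the growth readout after 48 h continuous exposure to test samples (10 to 10^−8 μg/ml). Cells were seeded at 5×10^3 per well in RPMI 1640/10% FBS and allowed 18 h to attach first.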

[8] = test system: IGROV; assay: cells; assay type: cell-based; conditions: for GI50 / TGI: 48 hours exposure, SRB; for CC50: read-out: LC50, 48 hours exposure, SRB
In short: (§1)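 Human tumour lines grown in RPMI 1640 with 10% FBS were seeded at 5×10^3 cells per well, left 18 hours to attach, then exposed to samples (10 to 10^−8 μg/ml) for 48 hours. Growth was quantified by sulphorhodamine B staining of TCA-fixed cells, with absorbance read at 490 nm.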

[9] = test system: A549; assay: cells; assay type: cell-based; conditions: A549, 48 hours exposure, SRB; for GI50: read-out: GI50; for CC50: read-out: LC50
In short: as §1

[10] = test system: MEL-28; assay: cells; assay type: cell-based; conditions: MEL-28, 48 hours exposure, SRB; for CC50: read-out: LC50
In short: as §1

[11] = test system: K562; assay: cells; assay type: cell-based; conditions: K562, 48 hours exposure, SRB; for CC50: read-out: LC50
In short: as §1

[12] = test system: LOVO; assay: cells; assay type: cell-based
In short: as §1

[13] = test system: IGROV-ET; assay: cells; assay type: cell-based
In short: as §1

[14] = test system: DU145; assay: cells; assay type: cell-based
In short: as §1

[15] = test system: LOVO-DOX; assay: cells; assay type: cell-based
In short: as §1

[16] = test system: HT29; assay: cells; assay type: cell-based
In short: as §1

[17] = test system: LNCAP; assay: cells; assay type: cell-based
In short: as §1

[18] = test system: PANC-1; assay: cells; assay type: cell-based; conditions: PANC-1, 48 hours exposure, SRB; for CC50: read-out: LC50
In short: as §1

[19] = test system: SK-BR3; assay: cells; assay type: cell-based; conditions: SK-BR3, 48 hours exposure, SRB; for CC50: read-out: LC50
In short: as §1

[20] = H-MEC-1, 48 hours exposure, SRB
[21] = Homo sapiens, LoVo, 48 h, 48 hours exposure, SRB
[22] = IGROV-ET, 48 hours exposure, SRB
[23] = LOVO-DOX, 48 hours exposure, SRB
[24] = Homo sapiens, HT-29, 48 h, HT29, 48 hours exposure, SRB
[25] = Homo sapiens, LNCaP, 48 h, 48 hours exposure, SRB

## COc1c(C)cc2c(c1O)[C@@H]1C3[C@@H]4SC[C@]5(NC(C)Cc6c5[nH]c5ccc(O)cc65)C(=O)COC[C@@H](c5c6c(c(C)c(OC(C)=O)c54)OCO6)N3[C@@H](O)[C@H](C2)N1C (stereo partly shown) [Compound 37]
[1]
  Liver: 5.46E−09
[2]
  Skeletal: 2.22E−08
[3]; Homo sapiens, SK-OV-3, 48 h, SK-OV3, 48 hours exposure, SRB
  GI50: 3.57 nM
[3]; Homo sapiens, SK-OV-3, 48 h, read-out: LC50, SK-OV3, 48 hours exposure, SRB
  CC50: 12700 nM
[3]; SK-OV3, 48 hours exposure, SRB
  TGI: 1.07E−08 Molar
[4]
  Kidney: 2.92E−08
[5]
  Myelo: 4.59E−09
[6]
  Heart: 1.74E−08
[7]; [20]
  TGI: 3.58E−08 Molar
[7]; Homo sapiens, HMEC-1, 48 h, H-MEC-1, 48 hours exposure, SRB
  GI50: 2.22 nM
[7]; Homo sapiens, HMEC-1, 48 h, read-out: LC50, H-MEC-1, 48 hours exposure, SRB
  CC50: 12700 nM
[8]
  GI50: 2.82 nM
  TGI: 7.06E−09 Molar
  CC50: 613 nM
[9]
  TGI: 2.17E−08 Molar
  CC50: 138 nM
[9]; Homo sapiens, A549, 48 h
  GI50: 4.23 nM
[10]; Homo sapiens, SK-MEL-28, 48 h
  GI50: 2.4 nM
  IC (TGI): 6.82 nM
[10]
  CC50: 33.5 nM
[11]; Homo sapiens, K562, 48 h
  GI50: 0.492 nM
  IC (TGI): 1.36 nM
[11]
  CC50: 12.7 nM
[12]; [21]
  GI50: 2.92 nM
  IC (TGI): 8.97 nM
[12]; Homo sapiens, LoVo, 48 h, read-out: LC50, LOVO, 48 hours exposure, SRB
  CC50: 12700 nM
[13]; Homo sapiens, 48 h, IGROV-ET, 48 hours exposure, SRB
  IC (TGI): 119 nM
[13]; Homo sapiens, 48 h, read-out: LC50, IGROV-ET, 48 hours exposure, SRB
  CC50: 12700 nM
[13]; [22]
  GI50: 37.6 nM
[14]; DU145, 48 hours exposure, SRB
  GI50: 4.6 nM
[14]; Homo sapiens, DU-145, 48 h, DU145, 48 hours exposure, SRB
  IC (TGI): 10.6 nM
[14]; Homo sapiens, DU-145, 48 h, read-out: LC50, DU145, 48 hours exposure, SRB
  CC50: 12700 nM
[15]; Homo sapiens, 48 h, LOVO-DOX, 48 hours exposure, SRB
  GI50: 61.7 nM
[15]; Homo sapiens, 48 h, read-out: LC50, LOVO-DOX, 48 hours exposure, SRB
  CC50: 12700 nM
[15]; [23]
  TGI: 4.10E−07 Molar
[16]; [24]
  GI50: 3.71 nM
  IC (TGI): 14 nM
[16]; Homo sapiens, HT-29, 48 h, read-out: LC50, HT29, 48 hours exposure, SRB
  CC50: 12700 nM
[17]; [25]
  GI50: 0.26 nM
  IC (TGI): 0.856 nM
[17]; Homo sapiens, LNCaP, 48 h, read-out: LC50, LNCAP, 48 hours exposure, SRB
  CC50: 4.75 nM
[18]; Homo sapiens, PANC-1, 48 h
  GI50: 3.12 nM
  IC (TGI): 11.8 nM
[18]
  CC50: 3020 nM
[19]
  GI50: 2.96 nM
  TGI: 6.80E−09 Molar
  CC50: 141 nM

## COc1c(C)cc2c(c1O)[C@@H]1C3[C@@H]4SC[C@]5(NC(C)Cc6c5[nH]c5ccc(O)cc65)C(=O)COC[C@@H](c5c6c(c(C)c(OC(C)=O)c54)OCO6)N3[C@@H](O)[C@H](C2)N1C (stereo partly shown) [Compound 38]
[1]
  Liver: 1.39E−10
[2]
  Skeletal: 1.29E−08
[3]; SK-OV3, 48 hours exposure, SRB
  GI50: 2.55 nM
  TGI: 7.13E−09 Molar
[3]; read-out: LC50, SK-OV3, 48 hours exposure, SRB
  CC50: 12700 nM
[4]
  Kidney: 9.85E−08
[5]
  Myelo: 9.66E−11
[6]
  Heart: 2.96E−09
[7]; [20]
  GI50: 3.06 nM
  TGI: 8.93E−09 Molar
[7]; read-out: LC50, H-MEC-1, 48 hours exposure, SRB
  CC50: 12700 nM
[8]
  GI50: 0.757 nM
  TGI: 2.89E−09 Molar
  CC50: 8.4 nM
[9]
  TGI: 5.24E−09 Molar
  GI50: 2.38 nM
  CC50: 11.5 nM
[10]
  GI50: 2.73 nM
  TGI: 5.33E−09 Molar
  CC50: 10.4 nM
[11]
  GI50: 0.422 nM
  TGI: 8.18E−10 Molar
  CC50: 3.15 nM
[12]; LOVO, 48 hours exposure, SRB
  GI50: 3.55 nM
  TGI: 1.03E−08 Molar
[12]; read-out: LC50, LOVO, 48 hours exposure, SRB
  CC50: 12700 nM
[13]; [22]
  GI50: 15.7 nM
  TGI: 6.59E−08 Molar
[13]; read-out: LC50, IGROV-ET, 48 hours exposure, SRB
  CC50: 6510 nM
[14]; DU145, 48 hours exposure, SRB
  GI50: 2.04 nM
  TGI: 6.80E−09 Molar
[14]; read-out: LC50, DU145, 48 hours exposure, SRB
  CC50: 12700 nM
[15]; [23]
  GI50: 55.3 nM
  TGI: 8.42E−07 Molar
[15]; read-out: LC50, LOVO-DOX, 48 hours exposure, SRB
  CC50: 12700 nM
[16]; HT29, 48 hours exposure, SRB
  GI50: 4.2 nM
  TGI: 1.69E−08 Molar
[16]; read-out: LC50, HT29, 48 hours exposure, SRB
  CC50: 12700 nM
[17]; LNCAP, 48 hours exposure, SRB
  GI50: 0.2 nM
  TGI: 7.21E−10 Molar
[17]; read-out: LC50, LNCAP, 48 hours exposure, SRB
  CC50: 3.07 nM
[18]
  GI50: 3.22 nM
  TGI: 8.37E−09 Molar
  CC50: 428 nM
[19]
  GI50: 1.07 nM
  TGI: 3.38E−09 Molar
  CC50: 9.54 nM
